Results taken from US12310975B2, “Modulators of BCL6 proteolysis and associated methods of use” (Arvinas Operations, Inc., priority 2019, dated 2025).

Assays:
[1] = target: T1, BCL6 (Homo sapiens (Human), UniProt P41182); assay: Immunofluorescence high content imaging of BCL6 degradation in T47D cells; type: cell-based; settings: T47D
Method in brief: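 BCL6 loss was quantified by high-content imaging (10×, 4 fields/well) after PFA fixation and anti-BCL6/Alexa-488 staining with Hoechst nuclear and CellMask counterstains. Compounds were applied for 3 days to T47D breast cancer cells in RPMI-10% FBS, 11 points, 3-fold steps, top 0.1 or 1 μM.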

[2] = target: T1, BCL6; assay: BCL6 TR-FRET assay (BCL6-Avitag-Biotin / BCoR-Cy5 peptide); type: binding; settings: read-out: IC50
Method in brief: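 After 30 min room-temperature preincubation of compound titrations with 2 nM biotinylated BCL6-Avitag, 100 nM Cy5-labelled BCoR peptide plus 2 nM Eu-streptavidin were added and TR-FRET read 2 h later. HEPES pH 7.5/125 mM NaCl buffer with Triton X, glutathione (or DTT) and BSA.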

| Compound | Dmax [1] [%] | IC50 [2] [nM] |
| --- | --- | --- |
| CNC(=O)COc1cc2cc(Nc3nc(N4CCN(CC5CC6(CCN(c7ccc8c(c7)C(=O)N(C7CCC(=O)NC7=O)C8=O)CC6)C5)CC4)ncc3Cl)ccc2n(C(C)C)c1=O (centres unmarked) [compound 516, 2-{[6-({5-chloro-2-[4-({7-[2-(2,6-dioxopiperidin-3-yl)-1,3-dioxo-2,3-dihydro-1H-isoindol-5-yl]-7-azaspiro[3.5]nonan-2-yl}methyl)piperazin-1-yl]pyrimidin-4-yl}amino)-2-oxo-1-(propan-2-yl)-1,2-dihydroquinolin-3-yl]oxy}-N-methylacetamide] | 50 to 70 | < 10 |
| CNC(=O)COc1cc2cc(Nc3nc(N4CCN(CC5CC6(CCN(c7cccc8c7C(=O)N(C7CCC(=O)NC7=O)C8=O)CC6)C5)CC4)ncc3Cl)ccc2n(C(C)C)c1=O (centres unmarked) [compound 517, 2-{[6-({5-chloro-2-[4-({7-[2-(2,6-dioxopiperidin-3-yl)-1,3-dioxo-2,3-dihydro-1H-isoindol-4-yl]-7-azaspiro[3.5]nonan-2-yl}methyl)piperazin-1-yl]pyrimidin-4-yl}amino)-2-oxo-1-(propan-2-yl)-1,2-dihydroquinolin-3-yl]oxy}-N-methylacetamide] | ≥ 70 | < 10 |
| CNC(=O)COc1cc2cc(Nc3nc(N4CCC(O[C@H]5C[C@H](N6CCN(c7cccc8c7C(=O)N(C7CCC(=O)NC7=O)C8=O)CC6)C5)CC4)ncc3Cl)ccc2n(C(C)C)c1=O (some centres unmarked) [compound 518, 2-({6-[(5-chloro-2-{4-[(1r,3r)-3-{4-[2-(2,6-dioxopiperidin-3-yl)-1,3-dioxo-2,3-dihydro-1H-isoindol-4-yl]piperazin-1-yl}cyclobutoxy]piperidin-1-yl}pyrimidin-4-yl)amino]-2-oxo-1-(propan-2-yl)-1,2-dihydroquinolin-3-yl}oxy)-N-methylacetamide] | ≥ 70 | 10 to 50 |
| CNC(=O)COc1cc2cc(Nc3nc(N4CCC5(CN(CC6CCN(c7cccc8c7C(=O)N(C7CCC(=O)NC7=O)C8=O)CC6)C5)C4)ncc3Cl)ccc2n(C(C)C)c1=O (centres unmarked) [compound 519, 2-{[6-({5-chloro-2-[2-({1-[2-(2,6-dioxopiperidin-3-yl)-1,3-dioxo-2,3-dihydro-1H-isoindol-4-yl]piperidin-4-yl}methyl)-2,6-diazaspiro[3.4]octan-6-yl]pyrimidin-4-yl}amino)-2-oxo-1-(propan-2-yl)-1,2-dihydroquinolin-3-yl]oxy}-N-methylacetamide] | ≥ 70 | < 10 |
| CNC(=O)COc1cc2cc(Nc3nc(N4CCC5(CC4)CCN(C4CCN(c6cccc7c6C(=O)N(C6CCC(=O)NC6=O)C7=O)CC4)C5)ncc3Cl)ccc2n(C(C)C)c1=O (centres unmarked) [compound 520, 2-[(6-{[5-chloro-2-(2-{1-[2-(2,6-dioxopiperidin-3-yl)-1,3-dioxo-2,3-dihydro-1H-isoindol-4-yl]piperidin-4-yl}-2,8-diazaspiro[4.5]decan-8-yl)pyrimidin-4-yl]amino}-2-oxo-1-(propan-2-yl)-1,2-dihydroquinolin-3-yl)oxy]-N-methylacetamide] | < 50 | < 10 |
| CNC(=O)COc1cc2cc(Nc3nc(N4CCC(N5CCC6(CCN(c7ccc8c(c7)C(=O)N(C7CCC(=O)NC7=O)C8=O)CC6)C5)CC4)ncc3Cl)ccc2n(C(C)C)c1=O (centres unmarked) [compound 521, 2-[(6-{[5-chloro-2-(4-{8-[2-(2,6-dioxopiperidin-3-yl)-1,3-dioxo-2,3-dihydro-1H-isoindol-5-yl]-2,8-diazaspiro[4.5]decan-2-yl}piperidin-1-yl)pyrimidin-4-yl]amino}-2-oxo-1-(propan-2-yl)-1,2-dihydroquinolin-3-yl)oxy]-N-methylacetamide] | 50 to 70 | < 10 |
| CNC(=O)COc1cc2cc(Nc3nc(N4CCN(CC5CC6(C5)CN(c5ccc7c(c5)C(=O)N(C5CCC(=O)NC5=O)C7=O)C6)CC4)ncc3Cl)ccc2n(C(C)C)c1=O (centres unmarked) [compound 523, 2-{[6-({5-chloro-2-[4-({2-[2-(2,6-dioxopiperidin-3-yl)-1,3-dioxo-2,3-dihydro-1H-isoindol-5-yl]-2-azaspiro[3.3]heptan-6-yl}methyl)piperazin-1-yl]pyrimidin-4-yl}amino)-2-oxo-1-(propan-2-yl)-1,2-dihydroquinolin-3-yl]oxy}-N-methylacetamide] | 50 to 70 | < 10 |
| CNC(=O)COc1cc2cc(Nc3nc(N4CCN(CC5CN(C6CCN(c7cccc8c7C(=O)N(C7CCC(=O)NC7=O)C8=O)CC6)C5)CC4)ncc3Cl)ccc2n(C(C)C)c1=O (centres unmarked) [compound 524, 2-({6-[(5-chloro-2-{4-[(1-{1-[2-(2,6-dioxopiperidin-3-yl)-1,3-dioxo-2,3-dihydro-1H-isoindol-4-yl]piperidin-4-yl}azetidin-3-yl)methyl]piperazin-1-yl}pyrimidin-4-yl)amino]-2-oxo-1-(propan-2-yl)-1,2-dihydroquinolin-3-yl}oxy)-N-methylacetamide] | 50 to 70 | < 10 |
| CNC(=O)COc1cc2cc(Nc3nc(N4CCC(OC5CN(C6CCN(c7cccc8c7C(=O)N(C7CCC(=O)NC7=O)C8=O)CC6)C5)CC4)ncc3Cl)ccc2n(C(C)C)c1=O (centres unmarked) [compound 525, 2-({6-[(5-chloro-2-{4-[(1-{1-[2-(2,6-dioxopiperidin-3-yl)-1,3-dioxo-2,3-dihydro-1H-isoindol-4-yl]piperidin-4-yl}azetidin-3-yl)oxy]piperidin-1-yl}pyrimidin-4-yl)amino]-2-oxo-1-(propan-2-yl)-1,2-dihydroquinolin-3-yl}oxy)-N-methylacetamide] | 50 to 70 | < 10 |
| CNC(=O)COc1cc2cc(Nc3nc(N4CCC(OC5CN(C6CCN(c7ccc8c(c7)C(=O)N(C7CCC(=O)NC7=O)C8=O)CC6)C5)CC4)ncc3Cl)ccc2n(C(C)C)c1=O (centres unmarked) [compound 526, 2-({6-[(5-chloro-2-{4-[(1-{1-[2-(2,6-dioxopiperidin-3-yl)-1,3-dioxo-2,3-dihydro-1H-isoindol-5-yl]piperidin-4-yl}azetidin-3-yl)oxy]piperidin-1-yl}pyrimidin-4-yl)amino]-2-oxo-1-(propan-2-yl)-1,2-dihydroquinolin-3-yl}oxy)-N-methylacetamide] | 50 to 70 | < 10 |
| CNC(=O)COc1cc2cc(Nc3nc(N4CCC(N5CCC6(CCN(c7cccc8c7C(=O)N(C7CCC(=O)NC7=O)C8=O)CC6)C5)CC4)ncc3Cl)ccc2n(C(C)C)c1=O (centres unmarked) [compound 527, 2-[(6-{[5-chloro-2-(4-{8-[2-(2,6-dioxopiperidin-3-yl)-1,3-dioxo-2,3-dihydro-1H-isoindol-4-yl]-2,8-diazaspiro[4.5]decan-2-yl}piperidin-1-yl)pyrimidin-4-yl]amino}-2-oxo-1-(propan-2-yl)-1,2-dihydroquinolin-3-yl)oxy]-N-methylacetamide] | 50 to 70 | < 10 |
| CNC(=O)COc1cc2cc(Nc3nc(N4CCN(CC5CC6(C5)CN(c5cccc7c5C(=O)N(C5CCC(=O)NC5=O)C7=O)C6)CC4)ncc3Cl)ccc2n(C(C)C)c1=O (centres unmarked) [compound 529, 2-{[6-({5-chloro-2-[4-({2-[2-(2,6-dioxopiperidin-3-yl)-1,3-dioxo-2,3-dihydro-1H-isoindol-4-yl]-2-azaspiro[3.3]heptan-6-yl}methyl)piperazin-1-yl]pyrimidin-4-yl}amino)-2-oxo-1-(propan-2-yl)-1,2-dihydroquinolin-3-yl]oxy}-N-methylacetamide] | 50 to 70 | < 10 |
| CNC(=O)COc1cc2cc(Nc3nc(N4CCC(O[C@H]5C[C@H](N6CCN(c7ccc8c(c7)C(=O)N(C7CCC(=O)NC7=O)C8=O)CC6)C5)CC4)ncc3Cl)ccc2n(C(C)C)c1=O (some centres unmarked) [compound 531, 2-({6-[(5-chloro-2-{4-[(1r,3r)-3-{4-[2-(2,6-dioxopiperidin-3-yl)-1,3-dioxo-2,3-dihydro-1H-isoindol-5-yl]piperazin-1-yl}cyclobutoxy]piperidin-1-yl}pyrimidin-4-yl)amino]-2-oxo-1-(propan-2-yl)-1,2-dihydroquinolin-3-yl}oxy)-N-methylacetamide] | < 50 | < 10 |
| CNC(=O)COc1cc2cc(Nc3nc(N4CCC5(CCN(CC6CCN(c7cccc8c7C(=O)N(C7CCC(=O)NC7=O)C8=O)CC6)CC5)CC4)ncc3Cl)ccc2n(C(C)C)c1=O (centres unmarked) [compound 533, 2-{[6-({5-chloro-2-[9-({1-[2-(2,6-dioxopiperidin-3-yl)-1,3-dioxo-2,3-dihydro-1H-isoindol-4-yl]piperidin-4-yl}methyl)-3,9-diazaspiro[5.5]undecan-3-yl]pyrimidin-4-yl}amino)-2-oxo-1-(propan-2-yl)-1,2-dihydroquinolin-3-yl]oxy}-N-methylacetamide] | ≥ 70 | < 10 |
| CNC(=O)COc1cc2cc(Nc3nc(N4CCC(CN5CCC6(CCN(c7ccc8c(c7)C(=O)N(C7CCC(=O)NC7=O)C8=O)C6)C5)CC4)ncc3Cl)ccc2n(C(C)C)c1=O (centres unmarked) [compound 534, 2-{[6-({5-chloro-2-[4-({7-[2-(2,6-dioxopiperidin-3-yl)-1,3-dioxo-2,3-dihydro-1H-isoindol-5-yl]-2,7-diazaspiro[4.4]nonan-2-yl}methyl)piperidin-1-yl]pyrimidin-4-yl}amino)-2-oxo-1-(propan-2-yl)-1,2-dihydroquinolin-3-yl]oxy}-N-methylacetamide] | ≥ 70 | < 10 |
| CNC(=O)COc1cc2cc(Nc3nc(N4CCC(O[C@H]5C[C@H](N6CCC(c7ccc8c(c7)C(=O)N(C7CCC(=O)NC7=O)C8=O)CC6)C5)CC4)ncc3Cl)ccc2n(C)c1=O (some centres unmarked) [compound 536, 2-({6-[(5-chloro-2-{4-[(1r,3r)-3-{4-[2-(2,6-dioxopiperidin-3-yl)-1,3-dioxo-2,3-dihydro-1H-isoindol-5-yl]piperidin-1-yl}cyclobutoxy]piperidin-1-yl}pyrimidin-4-yl)amino]-1-methyl-2-oxo-1,2-dihydroquinolin-3-yl}oxy)-N-methylacetamide] | ≥ 70 | < 10 |
